{
  "source": "patent US20170296621A1",
  "about": "“NOD2-DEPENDENT PATHWAY OF CYTOPROTECTION OF STEM CELLS” (INSTITUT PASTEUR, priority 2012, published 2017)",
  "key": {"[1]": {"system": "crypts from Nod1 KO mice", "experiment": "Organoid formation from crypts of Nod1 KO mice upon MAMP stimulation", "type": "cell-based", "excerpt": "FIG. 4 illustrates the fold change in number of organoids, formed from extracted crypts, from mice knocked out for Nod1 or Nod2 genes, upon different MAMPs stimulation conditions. By definition, the fold change of the untreated organoids is set to 1, and the fold changes upon the various stimulation conditions applied are by reference to the non-stimulated organoids.\nIntestinal crypts were obtained following a protocol already described (Sato et al., 2009). After isolation small intestines were isolated, flushed with cold PBS followed by 0.3% bleach and again PBS, opened longitudinally and the villi were removed. […] After severals vigourous shakings the crypts, released in the supernatant, were passed through a cell strainer 70 μm (BD Falcon), spun down at 800 rpm, resuspended in DMEM and counted. […]"}, "[2]": {"system": "intestinal crypts", "experiment": "Organoid formation from isolated intestinal crypts upon MAMP stimulation", "type": "cell-based, mice", "conditions": "wt crypts; 10 μg/ml", "description": "Crypts were stimulated with soluble sonicated peptidoglycan (PGN), muramyl-dipeptide (MDP), muramyl-tetrapeptide (Tetra-dap), Escherichia coli lipopolysaccharide (LPS) (each at 10 μg/ml), 10 ng/ml flagellin (Fla), 500 ng/ml synthetic lipoprotein (Pam3CSK), or 1 μM unmethylated CpG dinucleotides (CpG). The average number of non-stimulated organoids (control) is around 50, and the fold change value of the control is fixed to 1. The fold change upon the various MAMPs applied is thus by reference to non-stimulated organoids (Ctrl).\nIntestinal crypts were obtained following a protocol already described (Sato et al., 2009). After isolation small intestines were isolated, flushed with cold PBS followed by 0.3% bleach and again PBS, opened longitudinally and the villi were removed. The tissues were cutted in small pieces, washed in 5 mM PBS/EDTA for 5 min, and subsequently incubated in fresh 5 mM PBS/EDTA for 30 min on ice. After severals vigourous shakings the crypts, released in the supernatant, were passed through a cell strainer 70 μm (BD Falcon), spun down at 800 rpm, resuspended in DMEM and counted. The volume corresponding to 500 crypts was distributed in two tubes per condition, and spun down again. […] The crypts were embedded in 50 μl of growth factor reduced matrigel (BD Biosciences) in a 24-well plates, incubate at 37° C. […]"}, "[3]": {"system": "intestinal stem cells in crypts", "experiment": "Organoid formation under induced stress (doxorubicin or H2O2)", "type": "cell-based, mice", "conditions": "1 μM; after 4 days of treatment", "description": "By definition, the fold change of the untreated organoids is set to 1 in the absence of any additional stress, and the fold changes upon the various stimulation or stress conditions applied are by reference to the non-stimulated non-stressed organoids.\nDoxorubicin (1 μM) or H2O2 (200 μM) are added during the embedding of the crypts in the matrigel.\nIntestinal crypts were obtained following a protocol already described (Sato et al., 2009). After isolation small intestines were isolated, flushed with cold PBS followed by 0.3% bleach and again PBS, opened longitudinally and the villi were removed. The tissues were cutted in small pieces, washed in 5 mM PBS/EDTA for 5 min, and subsequently incubated in fresh 5 mM PBS/EDTA for 30 min on ice. After severals vigourous shakings the crypts, released in the supernatant, were passed through a cell strainer 70 μm (BD Falcon), spun down at 800 rpm, resuspended in DMEM and counted. The volume corresponding to 500 crypts was distributed in two tubes per condition, and spun down again. […] The crypts were embedded in 50 μl of growth factor reduced matrigel (BD Biosciences) in a 24-well plates, incubate at 37° C. 20 min and overload with 500 μl of crypts medium (CM) as described previously (Sato et al 2009). […]"}, "[4]": {"system": "intestinal crypts", "experiment": "Caspase-3 positive crypts in doxorubicin-treated mice", "type": "in vivo", "conditions": "intraperitoneal, 6 hours", "protocol": "FIG. 11 depicts the percentage of caspase-3 positive crypts in different conditions. The results are obtained after 6 hours.\nLine 1: WT, non-treated mice. Line 2: Nod2 KO mice, non-treated. Line 3: WT mice, treated with doxorubicin during 6 hours. Line 4: Nod2 KO mice, treated with doxorubicin during 6 hours. It can be observed that the absence of Nod2 induced more death in the crypts.\nB6.129P2-Lgr5^tm1(cre/ESR1)Cle/mice (Lgr5-EGFP) (Barker et al., 2007) were purchased from The Jackson Laboratories. Card4/Nod1 (Nod1 KO) mice were generated by Millenium pharmaceuticals Boston. Card15/Nod2 deficient C57BL/6J (Nod2 KO) (Barreau et al., 2007) were provided by J.-P. Hugot (Hôpital Robert Debré, Paris, France). All mice were kept in specific pathogen-free conditions. When indicated the mice were injected intraperitoneally with 200 μg of EdU (Invitrogen) 2 hrs prior to sacrifice or with 10 mg/kg doxorubicin hydrochloride (Sigma) and sacrificed at indicated time points. […]\nDoxorubicin in vivo. […] The percentage of crypts presenting at least one caspase3-positve cell was counted. […] To evaluate if upon doxorubicin treatment the proliferation index was affected, the number of EdU positive cells per crypts was counted and the percentage versus the total number of cells in the crypts was calculated."}, "[5]": {"system": "intestinal crypts", "experiment": "Proliferation index and regenerative crypts after doxorubicin injection", "type": "in vivo, mice", "conditions": "for Percentage of regenerative crypts / Relative size of crypts: 72 h after injection; for Relative size of crypts: crypt width×crypt height", "protocol": "FIG. 13 illustrates the percentage of EdU-positive cells per crypt, in wild-type or Nod2 KO mice, after 2 hours of EdU (5-ethynyl-2-deoxyuridine) treatment.\nFor the analysis of proliferation in the tissue, 10 mg/kg EdU were injected IP and the animals were sacrificed after 2 h. The Click-iT® EdU Alexa Fluor® 488 Imaging Kit was used on paraffin slides that were processed according to the manufacturer's instructions.\nThe proliferation index was calculated as a percentage of EdU positive cells over the total number of cells in each crypt. Data from five mice each group were obtained and at least 50 crypts per section were examined for all histological parameters. A regenerative crypt was defined as a crypt containing more than 10 EdU positive cells per crypt. Relative crypt size was determined as crypt width×crypt height.\nIn order to evaluate the capacity of stem cells to survive and repair the damaged tissue upon doxorubicin-treatment, the inventors used a modified clonogenic microcolony assay (Tustison et al). At 72 h wt mice presented higher percentage of regenerative/surviving crypts than in Nod2 KO mice and this was associated with a bigger size of the crypts (Table 1)."}, "[6]": {"system": "wt stem cells (Lgr5-EGFP)", "experiment": "Single cells stimulation: organoids from sorted wt stem cells", "type": "cell-based, mice", "conditions": "wt stem cells alone; 500 cells per well", "protocol": "FIG. 8 depicts the average number of organoids formed per well, depending on the cell types seeded in the well, without stimulation, or under stimulation with MDP. 500 cells were seeded per well in a 96-wells-plate.\nIsolated crypts from Lgr5-EGFP mice or Nod2KO mice were incubated in HBSS w/o Ca^+2 and Mg^2+ supplemented with 0.3 U/ml Dispase (BD Biosciences), 0.8 U/ml DNase (Sigma) and 10 μM Y-27632 (Sigma) for 30 min at 37° C.\nDissociated cells were washed with 1% PBS/BSA and stained with CD24-APC antibody (clone M1/69 BioLegend) and EpCam Pe-Cy7 (clone G8.8 BioLegend) for 20 min at 4° C., resuspended in crypts medium supplemented with 1 μM N-acetyl-L-cystein, 10 μM Jag-1 (Anaspec) and 10 μM Y-27632 (single cells medium-SCM) and filtered with a 20 μm mesh and analyzed with MoFlo legacy (Beckman Coulter).\nSinglets of viable epithelial cells were gated by negative staining for propidium iodide and positive staining for EpCam. The stem cells and Paneth cells were isolated respectively as GFP^hi+ population, and GFP^−CD24^hi+SSC^hi population.\nStem cells and Paneth cells derived from Lgr5-EGFP or Nod2KO mice were cultured alone or in different combinations. 500 cells from each condition were re-suspended in 100 μl of single cells medium with or without MAMPs and, when indicated, with 100 ng/ml wnt3 (R&D), seeded in 96-wells round-bottom plates and incubated on ice for 15 min. […]"}},
  "note": "Where a name gives a salt, the structure may show the parent alone.",
  "data": [
    {"molecule": "CC(=O)NC1C(O)OC(CO)C(O)C1OC(C)C(=O)NC(C)C(=O)NC(CCC(=O)O)C(N)=O", "note": "(stereo not shown) [MDP-ctrl]", "values": [
      {"measurement": "number of organoids compared with control (in words)", "setting": "[1]", "value": "No difference was observed"}
    ]},
    {"molecule": "CC(=O)NC1C(O)OC(CO)C(O)C1OC(C)C(=O)NC(C)C(=O)NC(CCC(=O)NC(CCCC(N)C(=O)O)C(=O)NC(C)C(=O)O)C(=O)O", "note": "(stereo not shown) [Tetra-dap, MurNAc-Tetra(DAP)]", "values": [
      {"measurement": "number of organoids compared with non-stimulated (in words)", "setting": "[2]", "value": "did not observe any differences and not"}
    ]},
    {"molecule": "COc1cccc2c1C(=O)c1c(O)c3c(c(O)c1C2=O)C[C@@](O)(C(=O)CO)C[C@@H]3O[C@H]1C[C@H](N)[C@H](O)[C@H](C)O1", "note": "[doxorubicin, doxorubicin hydrochloride]", "values": [
      {"measurement": "less organoids after treatment", "setting": "[3]", "value": 50, "unit": "%"},
      {"measurement": "percentage of crypts with apoptotic (caspase-3 positive) cells", "setting": "[4]; Nod2 KO mice", "value": 54, "unit": "%"},
      {"measurement": "percentage of crypts with apoptotic (caspase-3 positive) cells", "setting": "[4]; wt mice", "value": 30, "unit": "%"},
      {"measurement": "Percentage of regenerative crypts", "setting": "[5]; Nod2 KO mice", "value": "33.9 ± 9.4", "unit": "%"},
      {"measurement": "Relative size of crypts", "setting": "[5]; Nod2 KO mice", "value": "2538 ± 180"},
      {"measurement": "proliferation index in crypts (in words)", "setting": "[5]; Nod2 KO mice, following days", "value": "low rate of proliferation"},
      {"measurement": "proliferation index in crypts (in words)", "setting": "[5]; both wt and Nod2 KO mice, 6h until 24 h after injection", "value": "decrease in the rate of proliferation"},
      {"measurement": "proliferation index in crypts (in words)", "setting": "[5]; wt mice, 48 h until 72 h", "value": "reaching almost the same rate observed in the non-treated mice"},
      {"measurement": "Percentage of regenerative crypts", "setting": "[5]; wt mice", "value": "59.9 ± 6.4", "unit": "%"},
      {"measurement": "Relative size of crypts", "setting": "[5]; wt mice", "value": "3231 ± 105"}
    ]},
    {"molecule": "wnt ligand: 100 ng/ml wnt3 (R&D) added to stem cells (protein, UniProt P56703 22-355, looked up) Proto-oncogene Wnt-3: GYPIWWSLALGQQYTSLGSQPLLCGSIPGLVPKQLRFCRNYIEIMPSVAEGVKLGIQECQHQFRGRRWNCTTIDDSLAIFGPVLDKATRESAFVHAIASAGVAFAVTRSCAEGTSTICGCDSHHKGPPGEGWKWGGCSEDADFGVLVSREFADARENRPDARSAMNKHNNEAGRTTILDHMHLKCKCHGLSGSCEVKTCWWAQPDFRAIGDFLKDKYDSASEMVVEKHRESRGWVETLRAKYSLFKPPTERDLVYYENSPNFCEPNPETGSFGTRDRTCNVTSHGIDGCDLLCCGRGHNTRTEKRKEKCHCIFHWCCYVSCQECIRIYDVHTCK", "values": [
      {"measurement": "average of organoids per well", "setting": "[6]", "value": "around 3 organoids per well"}
    ]}
  ]
}
